Source: ChEMBL document CHEMBL1681722, “5-oxo-15-HETE: total synthesis and bioactivity” (Bioorg Med Chem Lett, 2011)
Active and inactive are the calls of the source. The calls are words filed in the database; no cut-off is given here.

How the values were obtained:
Oxoeicosanoid receptor 1 [1] = target: T1, Oxoeicosanoid receptor 1 (Homo sapiens, UniProt Q8TDS5); experiment: Agonist activity at 5-oxo-ETE receptor in human neutrophils assessed as stimulation of ca2+ mobilization; format: functional
Oxoeicosanoid receptor 1 [2] = target: T1, Oxoeicosanoid receptor 1; experiment: Agonist activity at 5-oxo-ETE receptor in human neutrophils assessed as stimulation of ca2+ mobilization at 100 nM in presence of 5-oxo-ETE; format: functional
[3] = Stability of the compound at -80 degC after 3 years by reversed-phase HPLC; format: physicochemical; conditions: 26298 h

T1 sequence (Q8TDS5 whole entry): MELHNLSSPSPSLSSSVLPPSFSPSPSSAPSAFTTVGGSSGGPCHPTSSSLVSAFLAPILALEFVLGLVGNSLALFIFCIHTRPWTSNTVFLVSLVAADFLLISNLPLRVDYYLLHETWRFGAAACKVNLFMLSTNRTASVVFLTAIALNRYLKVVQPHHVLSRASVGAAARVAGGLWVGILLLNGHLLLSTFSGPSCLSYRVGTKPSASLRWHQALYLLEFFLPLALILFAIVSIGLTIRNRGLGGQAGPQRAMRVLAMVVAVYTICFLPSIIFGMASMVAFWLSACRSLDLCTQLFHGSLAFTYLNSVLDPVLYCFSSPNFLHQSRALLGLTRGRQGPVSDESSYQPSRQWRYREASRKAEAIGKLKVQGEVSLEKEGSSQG

Row | EC50 (Oxoeicosanoid receptor 1 [1]) [µM] | Activity (Oxoeicosanoid receptor 1 [2]) | Stability [3] | SMILES
1 | 0.007 | – | – | CCCCC/C=C\C/C=C\C/C=C\C=C\C(=O)CCCC(=O)O [5-OXO-ETE]
2 | 0.056 | inactive | Stable | CCCCC[C@H](O)/C=C/C=C\C/C=C\C=C\C(=O)CCCC(=O)O
